Test results: US9113629B2, “4-amino-6-(4-substituted-phenyl)-picolinates and 6-amino-2-(4-substituted-phenyl)-pyrimidine-4-carboxylates and their use as herbicides” (DOW AGROSCIENCES LLC, priority 2013, dated 2015)
Where two headings read alike, the source gives them in different places.

Experiments:
[1] = system: Key Broadleaf Weed and Crop Species; test: Post-emergent Test II herbicidal activity (Table 5); format: in vivo; details: post-emergence, 336 h, 14 days after application
Procedure, shortened: (§1)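 Spray rates: a highest rate plus ½×, ¼×, ⅛×, 1/16×, all delivered at 187 L/ha to plants at the first–second true leaf stage. Readout is a visual percent injury score at 14 d, where 100 means complete kill.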

[2] = system: Key Grass and Sedge Weeds as well as Grass Crops; test: Post-emergent Test II herbicidal activity (Table 6); format: in vivo; details: post-emergence, 336 h
Procedure, shortened: as §1

Nc1c(F)c(-c2ccc(I)cc2)nc(C(=O)O)c1Cl [Compound 45, 4-amino-3-chloro-5-fluoro-6-(4-iodophenyl)picolinic acid]
pest or weed control at 70 g/ha ([1]; ABUTH: velvetleaf (Abutilon theophrasti), application rate 70 g ai/ha, read-out: Visual Growth Reduction (%) 14 Days After Application, ABUTH): 95 to 100% | pest or weed control at 140 g/ha ([1]; ABUTH: velvetleaf (Abutilon theophrasti), application rate 140 g ai/ha, read-out: Visual Growth Reduction (%) 14 Days After Application, ABUTH): 95 to 100% | pest or weed control at 70 g/ha ([1]; AMARE: redroot pigweed (Amaranthus retroflexus), application rate 70 g ai/ha, read-out: Visual Growth Reduction (%) 14 Days After Application, AMARE): 95 to 100% | pest or weed control at 140 g/ha ([1]; AMARE: redroot pigweed (Amaranthus retroflexus), application rate 140 g ai/ha, read-out: Visual Growth Reduction (%) 14 Days After Application, AMARE): 95 to 100% | pest or weed control at 70 g/ha ([1]; BRSNN: oilseed-rape, canola (Brassica napus), application rate 70 g ai/ha, read-out: Visual Growth Reduction (%) 14 Days After Application, BRSNN): 95 to 100% | pest or weed control at 140 g/ha ([1]; BRSNN: oilseed-rape, canola (Brassica napus), application rate 140 g ai/ha, read-out: Visual Growth Reduction (%) 14 Days After Application, BRSNN): 95 to 100% | pest or weed control at 70 g/ha ([1]; CHEAL: lambsquarters (Chenopodium album), application rate 70 g ai/ha, read-out: Visual Growth Reduction (%) 14 Days After Application, CHEAL): 95 to 100% | pest or weed control at 140 g/ha ([1]; CHEAL: lambsquarters (Chenopodium album), application rate 140 g ai/ha, read-out: Visual Growth Reduction (%) 14 Days After Application, CHEAL): 95 to 100% | pest or weed control at 70 g/ha ([1]; EPHHL: wild poinsettia (Euphorbia heterophylla), application rate 70 g ai/ha, read-out: Visual Growth Reduction (%) 14 Days After Application, EPHHL): 95 to 100% | pest or weed control at 140 g/ha ([1]; EPHHL: wild poinsettia (Euphorbia heterophylla), application rate 140 g ai/ha, read-out: Visual Growth Reduction (%) 14 Days After Application, EPHHL): 95 to 100% | pest or weed control at 70 g/ha ([1]; HELAN: sunflower (Helianthus annuus), application rate 70 g ai/ha, read-out: Visual Growth Reduction (%) 14 Days After Application, HELAN): 95 to 100% | pest or weed control at 140 g/ha ([1]; HELAN: sunflower (Helianthus annuus), application rate 140 g ai/ha, read-out: Visual Growth Reduction (%) 14 Days After Application, HELAN): 95 to 100% | pest or weed control at 70 g/ha ([1]; VIOTR: wild pansy (Viola tricolor), application rate 70 g ai/ha, read-out: Visual Growth Reduction (%) 14 Days After Application, VIOTR): 85 to 94% | pest or weed control at 140 g/ha ([1]; VIOTR: wild pansy (Viola tricolor), application rate 140 g ai/ha, read-out: Visual Growth Reduction (%) 14 Days After Application, VIOTR): 95 to 100% | pest or weed control at 70 g/ha ([2]; CYPES: yellow nutsedge (Cyperus esculentus), 70 g ai/ha, read-out: Visual Growth Reduction (%) 14 Days After Application, CYPES): 85 to 94% | pest or weed control at 140 g/ha ([2]; CYPES: yellow nutsedge (Cyperus esculentus), 140 g ai/ha, read-out: Visual Growth Reduction (%) 14 Days After Application, CYPES): 95 to 100% | pest or weed control at 70 g/ha ([2]; DIGSA: crabgrass (Digitaria sanguinalis), 70 g ai/ha, read-out: Visual Growth Reduction (%) 14 Days After Application, DIGSA): 85 to 94% | pest or weed control at 140 g/ha ([2]; DIGSA: crabgrass (Digitaria sanguinalis), 140 g ai/ha, read-out: Visual Growth Reduction (%) 14 Days After Application, DIGSA): 85 to 94% | pest or weed control at 70 g/ha ([2]; ECHCG: barnyardgrass (Echinochloa crus-galli), 70 g ai/ha, read-out: Visual Growth Reduction (%) 14 Days After Application, ECHCG): 95 to 100% | pest or weed control at 140 g/ha ([2]; ECHCG: barnyardgrass (Echinochloa crus-galli), 140 g ai/ha, read-out: Visual Growth Reduction (%) 14 Days After Application, ECHCG): 95 to 100% | pest or weed control at 70 g/ha ([2]; ORYSA: rice (Oryza sativa), crop, 70 g ai/ha, read-out: Visual Growth Reduction (%) 14 Days After Application, ORYSA): 45 to 59% | pest or weed control at 140 g/ha ([2]; ORYSA: rice (Oryza sativa), crop, 140 g ai/ha, read-out: Visual Growth Reduction (%) 14 Days After Application, ORYSA): 60 to 74% | pest or weed control at 70 g/ha ([2]; SETFA: giant foxtail (Setaria faberi), 70 g ai/ha, read-out: Visual Growth Reduction (%) 14 Days After Application, SETFA): 85 to 94% | pest or weed control at 140 g/ha ([2]; SETFA: giant foxtail (Setaria faberi), 140 g ai/ha, read-out: Visual Growth Reduction (%) 14 Days After Application, SETFA): 85 to 94% | pest or weed control at 70 g/ha ([2]; SORVU: grain sorghum (Sorghum vulgare), 70 g ai/ha, read-out: Visual Growth Reduction (%) 14 Days After Application, SORVU): 60 to 74% | pest or weed control at 140 g/ha ([2]; SORVU: grain sorghum (Sorghum vulgare), 140 g ai/ha, read-out: Visual Growth Reduction (%) 14 Days After Application, SORVU): 95 to 100% | pest or weed control at 70 g/ha ([2]; TRZSS (wheat, Triticum aestivum), crop, 70 g ai/ha, read-out: Visual Growth Reduction (%) 14 Days After Application, TRZSS): 60 to 74% | pest or weed control at 140 g/ha ([2]; TRZSS (wheat, Triticum aestivum), crop, 140 g ai/ha, read-out: Visual Growth Reduction (%) 14 Days After Application, TRZSS): 75 to 84% | pest or weed control at 70 g/ha ([2]; ZEAMX: maize, corn (Zea mays), crop, 70 g ai/ha, read-out: Visual Growth Reduction (%) 14 Days After Application, ZEAMX): 85 to 94% | pest or weed control at 140 g/ha ([2]; ZEAMX: maize, corn (Zea mays), crop, 140 g ai/ha, read-out: Visual Growth Reduction (%) 14 Days After Application, ZEAMX): 95 to 100%

Nc1c(Cl)c(C(=O)O)nc(-c2ccc(C(F)(F)F)c(F)c2)c1Cl [Compound 146]
pest or weed control at 70 g/ha ([1]; ABUTH: velvetleaf (Abutilon theophrasti), 70 g ai/ha, post-emergent, read-out: Visual Growth Reduction (%) 14 Days After Application ABUTH): 75 to 84% | pest or weed control at 140 g/ha ([1]; ABUTH: velvetleaf (Abutilon theophrasti), 140 g ai/ha, post-emergent, read-out: Visual Growth Reduction (%) 14 Days After Application ABUTH): 85 to 94% | pest or weed control at 70 g/ha ([1]; AMARE: redroot pigweed (Amaranthus retroflexus), 70 g ai/ha, post-emergent, read-out: Visual Growth Reduction (%) 14 Days After Application AMARE): 75 to 84% | pest or weed control at 140 g/ha ([1]; AMARE: redroot pigweed (Amaranthus retroflexus), 140 g ai/ha, post-emergent, read-out: Visual Growth Reduction (%) 14 Days After Application AMARE): 85 to 94% | pest or weed control at 70 g/ha ([1]; BRSNN: oilseed-rape, canola (Brassica napus), 70 g ai/ha, post-emergent, read-out: Visual Growth Reduction (%) 14 Days After Application BRSNN): 85 to 94% | pest or weed control at 140 g/ha ([1]; BRSNN: oilseed-rape, canola (Brassica napus), 140 g ai/ha, post-emergent, read-out: Visual Growth Reduction (%) 14 Days After Application BRSNN): 85 to 94% | pest or weed control at 70 g/ha ([1]; CHEAL: lambsquarters (Chenopodium album), 70 g ai/ha, post-emergent, read-out: Visual Growth Reduction (%) 14 Days After Application CHEAL): 85 to 94% | pest or weed control at 140 g/ha ([1]; CHEAL: lambsquarters (Chenopodium album), 140 g ai/ha, post-emergent, read-out: Visual Growth Reduction (%) 14 Days After Application CHEAL): 85 to 94% | pest or weed control at 70 g/ha ([1]; EPHHL: wild poinsettia (Euphorbia heterophylla), 70 g ai/ha, post-emergent, read-out: Visual Growth Reduction (%) 14 Days After Application EPHHL): 0 to 29% | pest or weed control at 140 g/ha ([1]; EPHHL: wild poinsettia (Euphorbia heterophylla), 140 g ai/ha, post-emergent, read-out: Visual Growth Reduction (%) 14 Days After Application EPHHL): 0 to 29% | pest or weed control at 70 g/ha ([1]; HELAN: sunflower (Helianthus annuus), 70 g ai/ha, post-emergent, read-out: Visual Growth Reduction (%) 14 Days After Application HELAN): 95 to 100% | pest or weed control at 140 g/ha ([1]; HELAN: sunflower (Helianthus annuus), 140 g ai/ha, post-emergent, read-out: Visual Growth Reduction (%) 14 Days After Application HELAN): 95 to 100% | pest or weed control at 70 g/ha ([1]; VIOTR: wild pansy (Viola tricolor), 70 g ai/ha, post-emergent, read-out: Visual Growth Reduction (%) 14 Days After Application VIOTR): 0 to 29% | pest or weed control at 140 g/ha ([1]; VIOTR: wild pansy (Viola tricolor), 140 g ai/ha, post-emergent, read-out: Visual Growth Reduction (%) 14 Days After Application VIOTR): 0 to 29% | pest or weed control at 70 g/ha ([2]; Triticum aestivum, TRZSS (wheat), application rate 70 g ai/ha, read-out: Visual Growth Reduction (%) 14 Days After Application, TRZSS): 60 to 74% | pest or weed control at 140 g/ha ([2]; Triticum aestivum, TRZSS (wheat), application rate 140 g ai/ha, read-out: Visual Growth Reduction (%) 14 Days After Application, TRZSS): 75 to 84% | pest or weed control at 70 g/ha ([2]; CYPES: yellow nutsedge (Cyperus esculentus), application rate 70 g ai/ha, read-out: Visual Growth Reduction (%) 14 Days After Application, CYPES): 95 to 100% | pest or weed control at 140 g/ha ([2]; CYPES: yellow nutsedge (Cyperus esculentus), application rate 140 g ai/ha, read-out: Visual Growth Reduction (%) 14 Days After Application, CYPES): 95 to 100% | pest or weed control at 70 g/ha ([2]; DIGSA: crabgrass (Digitaria sanguinalis), application rate 70 g ai/ha, read-out: Visual Growth Reduction (%) 14 Days After Application, DIGSA): 60 to 74% | pest or weed control at 140 g/ha ([2]; DIGSA: crabgrass (Digitaria sanguinalis), application rate 140 g ai/ha, read-out: Visual Growth Reduction (%) 14 Days After Application, DIGSA): 60 to 74% | pest or weed control at 70 g/ha ([2]; ECHCG: barnyardgrass (Echinochloa crus-galli), application rate 70 g ai/ha, read-out: Visual Growth Reduction (%) 14 Days After Application, ECHCG): 75 to 84% | pest or weed control at 140 g/ha ([2]; ECHCG: barnyardgrass (Echinochloa crus-galli), application rate 140 g ai/ha, read-out: Visual Growth Reduction (%) 14 Days After Application, ECHCG): 85 to 94% | pest or weed control at 70 g/ha ([2]; ORYSA: rice (Oryza sativa), application rate 70 g ai/ha, read-out: Visual Growth Reduction (%) 14 Days After Application, ORYSA): 0 to 29% | pest or weed control at 140 g/ha ([2]; ORYSA: rice (Oryza sativa), application rate 140 g ai/ha, read-out: Visual Growth Reduction (%) 14 Days After Application, ORYSA): 0 to 29% | pest or weed control at 70 g/ha ([2]; SORVU: grain sorghum (Sorghum vulgare), application rate 70 g ai/ha, read-out: Visual Growth Reduction (%) 14 Days After Application, SORVU): 30 to 44% | pest or weed control at 140 g/ha ([2]; SORVU: grain sorghum (Sorghum vulgare), application rate 140 g ai/ha, read-out: Visual Growth Reduction (%) 14 Days After Application, SORVU): 30 to 44% | pest or weed control at 70 g/ha ([2]; ZEAMX: maize, corn (Zea mays), application rate 70 g ai/ha, read-out: Visual Growth Reduction (%) 14 Days After Application, ZEAMX): 60 to 74% | pest or weed control at 140 g/ha ([2]; ZEAMX: maize, corn (Zea mays), application rate 140 g ai/ha, read-out: Visual Growth Reduction (%) 14 Days After Application, ZEAMX): 60 to 74%
